According to the NIST ThermoML archive (doi:10.1021/acs.jced.8b00132):
Where “and” joins values, the source holds several entries; their conditions need not be identical. Equal values may be shown once. ± gives the expanded uncertainty stated by the source.

Conditions: transient hot wire

O=C(C(F)(F)C(F)(F)F)C(F)(C(F)(F)F)C(F)(F)F [dodecafluoro-2-methylpentan-3-one]
Conditions | thermal conductivity
417.43 K, 35735 kPa, Liquid | 0.06006 ± 0.0012 W/m/K
417.44 K, 35746 kPa, Liquid | 0.06008 ± 0.0012 W/m/K
417.45 K, 995 kPa, Gas | 0.022 ± 0.0014 W/m/K
417.46 K, 24856 kPa, Liquid | 0.05553 ± 0.0011 W/m/K
417.46 K, 24868 kPa, Liquid | 0.05553 ± 0.0011 W/m/K
417.48 K, 3782 kPa, Liquid | 0.04235 ± 0.00089 W/m/K
417.49 K, 3785 kPa, Liquid | 0.04236 ± 0.00089 W/m/K
417.5 K, 788 kPa, Gas | 0.02105 ± 0.0013 W/m/K and 0.02104 ± 0.0013 W/m/K
417.52 K, 10593 kPa, Liquid | 0.04792 ± 0.001 W/m/K
417.52 K, 10594 kPa, Liquid | 0.04785 ± 0.001 W/m/K
417.53 K, 2204 kPa, Liquid | 0.04067 ± 0.00085 W/m/K
417.53 K, 2206 kPa, Liquid | 0.04059 ± 0.00085 W/m/K
417.56 K, 372 kPa, Gas | 0.02094 ± 0.0013 W/m/K
417.59 K, 16285 kPa, Liquid | 0.05128 ± 0.0011 W/m/K
417.59 K, 35671 kPa, Liquid | 0.06014 ± 0.0012 W/m/K
417.59 K, 35701 kPa, Liquid | 0.06019 ± 0.0012 W/m/K
417.6 K, 591 kPa, Gas | 0.02077 ± 0.0013 W/m/K
417.6 K, 1024 kPa, Gas | 0.0225 ± 0.00075 W/m/K
417.6 K, 16284 kPa, Liquid | 0.05126 ± 0.0011 W/m/K
417.61 K, 594 kPa, Gas | 0.02078 ± 0.0013 W/m/K
417.61 K, 6424 kPa, Liquid | 0.04484 ± 0.00094 W/m/K
417.62 K, 6421 kPa, Liquid | 0.0448 ± 0.00094 W/m/K
417.65 K, 994 kPa, Gas | 0.02218 ± 0.0014 W/m/K
417.66 K, 995 kPa, Gas | 0.02218 ± 0.0014 W/m/K
417.68 K, 785 kPa, Gas | 0.02107 ± 0.0013 W/m/K
417.7 K, 788 kPa, Gas | 0.02117 ± 0.0013 W/m/K
417.7 K, 3782 kPa, Liquid | 0.04218 ± 0.00088 W/m/K and 0.04238 ± 0.00089 W/m/K
417.71 K, 10585 kPa, Liquid | 0.04785 ± 0.001 W/m/K
417.73 K, 10592 kPa, Liquid | 0.04786 ± 0.001 W/m/K
417.76 K, 371 kPa, Gas | 0.02099 ± 0.0013 W/m/K
417.76 K, 372 kPa, Gas | 0.0209 ± 0.0013 W/m/K
417.82 K, 589 kPa, Gas | 0.02086 ± 0.0013 W/m/K
417.82 K, 6421 kPa, Liquid | 0.0448 ± 0.00094 W/m/K
417.84 K, 994 kPa, Gas | 0.02265 ± 0.0014 W/m/K
417.84 K, 6421 kPa, Liquid | 0.04481 ± 0.00094 W/m/K
417.85 K, 994 kPa, Gas | 0.02241 ± 0.0014 W/m/K
417.88 K, 785 kPa, Gas | 0.02124 ± 0.0013 W/m/K
417.93 K, 3782 kPa, Liquid | 0.04241 ± 0.00089 W/m/K
417.93 K, 3784 kPa, Liquid | 0.04244 ± 0.00089 W/m/K
417.95 K, 369 kPa, Gas | 0.02101 ± 0.0013 W/m/K
417.95 K, 370 kPa, Gas | 0.02093 ± 0.0013 W/m/K
418.05 K, 588 kPa, Gas | 0.02096 ± 0.0013 W/m/K
418.08 K, 784 kPa, Gas | 0.02089 ± 0.0013 W/m/K
418.16 K, 367 kPa, Gas | 0.02097 ± 0.0013 W/m/K
418.16 K, 369 kPa, Gas | 0.02096 ± 0.0013 W/m/K
418.29 K, 587 kPa, Gas | 0.02094 ± 0.0013 W/m/K
418.3 K, 587 kPa, Gas | 0.02092 ± 0.0013 W/m/K
418.46 K, 367 kPa, Gas | 0.02103 ± 0.0013 W/m/K
418.47 K, 366 kPa, Gas | 0.02102 ± 0.0013 W/m/K
432.13 K, 1545 kPa, Gas | 0.02726 ± 0.0017 W/m/K
432.18 K, 1546 kPa, Gas | 0.02748 ± 0.0017 W/m/K
432.2 K, 1545 kPa, Gas | 0.02732 ± 0.0017 W/m/K
432.24 K, 1546 kPa, Gas | 0.02788 ± 0.0018 W/m/K
432.25 K, 1546 kPa, Gas | 0.02765 ± 0.0018 W/m/K
432.26 K, 1546 kPa, Gas | 0.0279 ± 0.0018 W/m/K
432.38 K, 2634 kPa, Liquid | 0.03887 ± 0.00082 W/m/K
432.38 K, 2635 kPa, Liquid | 0.0388 ± 0.00082 W/m/K
432.42 K, 1424 kPa, Gas | 0.02465 ± 0.0015 W/m/K
432.43 K, 1423 kPa, Gas | 0.02466 ± 0.0015 W/m/K
432.46 K, 1706 kPa, Liquid | 0.03696 ± 0.00079 W/m/K
432.46 K, 1978 kPa, Liquid | 0.03766 ± 0.0008 W/m/K
432.47 K, 1706 kPa, Liquid | 0.03707 ± 0.00079 W/m/K
432.47 K, 1710 kPa, Liquid | 0.03705 ± 0.00079 W/m/K
432.47 K, 1979 kPa, Liquid | 0.03775 ± 0.0008 W/m/K
432.52 K, 1423 kPa, Gas | 0.0248 ± 0.0015 W/m/K
432.52 K, 2633 kPa, Liquid | 0.03885 ± 0.00082 W/m/K
432.53 K, 1423 kPa, Gas | 0.02469 ± 0.0015 W/m/K
432.53 K, 2633 kPa, Liquid | 0.03887 ± 0.00082 W/m/K
432.54 K, 1420 kPa, Gas | 0.02444 ± 0.0015 W/m/K
432.55 K, 1420 kPa, Gas | 0.0244 ± 0.0015 W/m/K
432.56 K, 1978 kPa, Liquid | 0.03769 ± 0.00079 W/m/K
432.57 K, 1705 kPa, Liquid | 0.03737 ± 0.00079 W/m/K and 0.03712 ± 0.00079 W/m/K
432.57 K, 1979 kPa, Liquid | 0.0379 ± 0.0008 W/m/K
432.62 K, 1709 kPa, Liquid | 0.03738 ± 0.00079 W/m/K
432.63 K, 1422 kPa, Gas | 0.02518 ± 0.0016 W/m/K
432.63 K, 1709 kPa, Liquid | 0.0377 ± 0.0008 W/m/K
432.65 K, 1419 kPa, Gas | 0.02476 ± 0.0015 W/m/K and 0.02477 ± 0.0015 W/m/K
432.67 K, 1705 kPa, Liquid | 0.03805 ± 0.00081 W/m/K
432.68 K, 1705 kPa, Liquid | 0.0373 ± 0.00079 W/m/K
432.68 K, 1977 kPa, Liquid | 0.03782 ± 0.0008 W/m/K
432.68 K, 1978 kPa, Liquid | 0.03794 ± 0.0008 W/m/K
432.68 K, 2631 kPa, Liquid | 0.03893 ± 0.00082 W/m/K
432.68 K, 2632 kPa, Liquid | 0.03891 ± 0.00082 W/m/K
432.69 K, 3940 kPa, Liquid | 0.04069 ± 0.00085 W/m/K and 0.04067 ± 0.00085 W/m/K
